Where no end group is shown, it is not given here.
Columns and labels:
TNF-α protein = TNF-α protein (Homo sapiens, UniProt P01375); test: ELISA affinity assay of FITC-labeled peptide to coated TNF-α; type: binding; details: FIG. 1 / FIG. 2
Procedure: (§1) A 96-well ELISA plate was coated with 2 μg/ml TNF-α solution at 4° C. overnight. Different concentrations of peptide 632 labeled with FITC were added to each well and incubated for 2 h. After incubation, HRP-conjugated anti-FITC monoclonal antibody was added, incubated for 1 h, and then ABTS coloring solution was added. After color development for 1 h, the OD value at 410 nm was measured using a microplate reader, and GraphPad Prism 5 was used for plotting and analysis.
as §1, with “TNF-α protein” for “TNF-α solution”, “overnight. After blocking with BSA, different” for “overnight. Different”

[1] = system: p-xylene induced ear swelling in Kunming mice; test: p-xylene induced mouse ear swelling model of inflammation; type: in vivo; details: male Kunming mice, subcutaneous injection for 3 consecutive days, p-xylene on right auricle, 1 h, versus control group
Procedure: The experimental animals were divided into three groups: blank group, a non-related peptide control group and an antagonist peptide (peptide 632) group. Using mice as an example, male Kunming mice of 6 weeks old were injected subcutaneously at right abdomen for 3 consecutive days. After the last injection, mice of each group were smeared with p-xylene on both sides of the right auricle. 1 h after the treatment, mice were sacrificed, and the left and right ears of the mice were cut. An ear swelling puncher was used to cut down ears to obtain ear pieces. Swelling degree of mouse ear were obtained by subtracting the weighs of left ear piece from the weighs of right ear piece.
The experimental animals were divided into three groups: blank group, a non-related peptide control group and an antagonist peptide (peptide 632) group. Male Kunming mice of 6 weeks old were injected subcutaneously with peptides at right abdomen for 3 consecutive days. 30 min after the last injection, mice of each group were smeared with p-xylene (0.03 ml/per mouse) on both sides of the right auricle to induce inflammation, and the left auricle was served as normal control. 1 h after the inflammation, animals were sacrificed, and the ears of mice were completely cut and marked to distinguish the left and right ears of the same mouse. […] The ear pieces were weighed together with papers, and the results were recorded. […]

TNF-α protein, sequence (P01375 77-233 limits assumed, species assumed): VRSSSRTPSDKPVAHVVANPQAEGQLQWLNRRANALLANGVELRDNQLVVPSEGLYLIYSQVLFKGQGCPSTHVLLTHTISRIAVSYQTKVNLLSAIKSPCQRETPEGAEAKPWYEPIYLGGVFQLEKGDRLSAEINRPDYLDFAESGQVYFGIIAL

binding affinity for TNF-α protein (in words) (TNF-α protein)	Substance	swelling degree of mouse ear [1]	swelling degree of mouse ear ([1]; listed as antagonist peptide)
high binding affinity	KASGSPSGFWPS [peptide 636]		
high binding affinity	HYIDFRW [peptide 632, HYIDFRW]	significantly lower than those of the control group	significantly inhibit the swelling of the mouse ear
